# Measurements taken from patent US20100124782A1, “Composition For Repairing Defect In Skin Or Gingival Soft Tissue And Method Of Culturing Autologous Fibroblasts” (Applied Cell Biotechnologies, Inc., priority 2007, published 2010).
# Test system: fibroblasts separated from skin tissue
# Experiment: Collagen concentration in fibroblast culture supernatant (human collagen ELISA quantitative kit)
# Assay type: cell-based
# Settings: vitamin C (0.01-1 mM) added to the culture medium of skin fibroblasts; unit not given
# Method: Culture of the fibroblasts separated from skin tissue was carried out according to a well-known method (R. I. Freshney, Culture of Animal Cells: A MANUAL OF BASIC TECHNIQUE (Wiley-Liss, Inc. 2000)). Specifically, the fibroblasts separated from skin tissue were being subcultured, subsequently followed by expansion culture, to be end up to a few T-225 flasks in the end. Vitamin C in the range of 0.01-1 mM was added to the culture medium three days before the end of culture (scheduled day of injection). Furthermore, the culture medium was replaced with a 2-5% self-serum addition culture medium with no vitamin C added. The cultured fibroblasts were exfoliated from a culture vessel with a dispersion liquid with no EDTA solution or enzyme, and the cells were separated from the dispersion liquid by centrifugation. Then, washing in a physiological salt solution were performed more than three times. The collagen concentration contained in the culture supernatant of the fibroblasts cultured in the culture medium with vitamin C added of Example 1 and the culture supernatant with no vitamin C added by the human collagen ELISA quantitative kit (AC Biotechnologies).
structure (smiles),measurement,value
O=C1O[C@H]([C@@H](O)CO)C(O)=C1O [vitamin C],collagen concentration contained in the culture supernatant,11.3
